Data published in patent US20080009418A1, “Selective Inhibitors” (Alchemia LTD., priority 2004, published 2008).

Tests used:
[1] = target: T1, Human Melanocortin (MC4) (Homo sapiens, UniProt P32245); test: Radioligand binding, human melanocortin MC4 membranes, FlashPlate, [125I]-NDP-αMSH; conditions: compound at 10 μM; [125I]-NDP-αMSH
T1 construct: purchased Perkin Elmer Biosignal
Outline: (§1)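 Cloned human receptor membranes were coated onto FlashPlate wells and incubated with radioligand and compound (added from a 0.5 mM DMSO daughter plate) for 1 hour at room temperature in the dark. Scintillation counting gave percent inhibition, with DMSO defining total and reference ligand defining non-specific binding.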

[2] = target: T2, Human μ-opioid (MOP) (Homo sapiens, UniProt P35372); test: Radioligand binding, human μ-opioid (MOP) membranes, FlashPlate, [3H]-Naloxone; conditions: compound at 10 μM; [3H]-Naloxone
T2 construct: purchased Perkin Elmer Biosignal
Outline: as §1

[3] = target: T3, Human melanin-concentrating hormone (MCH1) (Homo sapiens, UniProt Q99705); test: Radioligand binding, human melanin-concentrating hormone MCH1 membranes, FlashPlate, [125I]-S36057; conditions: compound at 10 μM; [125I]-S36057
T3 construct: purchased Perkin Elmer Biosignal
Outline: as §1

[4] = target: T4, Human opioid (ORL1) (Homo sapiens, UniProt P41146); test: Radioligand binding, human opioid ORL1 membranes, FlashPlate, [125I]-Nociceptin; conditions: compound at 10 μM; [125I]-Nociceptin
T4 construct: purchased Perkin Elmer Biosignal
Outline: as §1

[5] = target: T5, Human neuropeptide Y (NPY-Y1) (Homo sapiens, UniProt P25929); test: Radioligand binding, human neuropeptide Y NPY-Y1 membranes, FlashPlate, [125I]-PYY; conditions: compound at 10 μM; [125I]-PYY
T5 construct: purchased Perkin Elmer Biosignal
T5 sequence (P25929 1-384): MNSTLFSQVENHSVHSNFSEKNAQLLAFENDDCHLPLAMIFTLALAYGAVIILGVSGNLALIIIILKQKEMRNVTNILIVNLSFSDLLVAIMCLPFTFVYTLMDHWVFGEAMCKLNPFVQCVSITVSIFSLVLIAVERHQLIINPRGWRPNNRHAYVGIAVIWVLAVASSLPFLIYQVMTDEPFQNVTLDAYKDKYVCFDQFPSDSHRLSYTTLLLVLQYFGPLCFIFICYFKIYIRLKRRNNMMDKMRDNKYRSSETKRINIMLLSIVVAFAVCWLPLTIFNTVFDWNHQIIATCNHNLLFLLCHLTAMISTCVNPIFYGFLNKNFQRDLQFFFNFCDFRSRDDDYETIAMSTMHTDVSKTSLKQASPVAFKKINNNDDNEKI
Outline: as §1

[6] = target: T6, Human δ-opioid (DOP) (Homo sapiens, UniProt P41143); test: Radioligand binding, human δ-opioid (DOP) membranes, FlashPlate, [3H]-Bremazocine; conditions: compound at 10 μM; [3H]-Bremazocine
T6 construct: purchased Perkin Elmer Biosignal
Outline: as §1

[7] = target: T7, Mouse urotensin (mUR2) (Mus musculus, UniProt Q8VIH9); test: Radioligand binding, mouse urotensin mUR2 membranes, FlashPlate, [125I]-Urotensin II; conditions: compound at 10 μM; [125I]-Urotensin II
T7 construct: purchased Perkin Elmer Biosignal
T7 sequence (Q8VIH9 1-385): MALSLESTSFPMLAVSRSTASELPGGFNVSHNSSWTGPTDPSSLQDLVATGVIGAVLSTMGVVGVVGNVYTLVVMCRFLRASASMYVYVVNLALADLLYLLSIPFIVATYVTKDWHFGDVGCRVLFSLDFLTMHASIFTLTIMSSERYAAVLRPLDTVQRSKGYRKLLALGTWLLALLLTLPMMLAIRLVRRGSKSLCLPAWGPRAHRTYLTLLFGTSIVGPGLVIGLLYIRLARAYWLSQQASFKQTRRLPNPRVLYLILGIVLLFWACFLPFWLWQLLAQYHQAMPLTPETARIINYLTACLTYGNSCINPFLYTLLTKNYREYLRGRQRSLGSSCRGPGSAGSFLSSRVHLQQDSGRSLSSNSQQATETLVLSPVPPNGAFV
Outline: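 Cloned mouse urotensin (mUR2) receptor membranes from Perkin Elmer Biosignal were immobilized in FlashPlate microplates using a proprietary coating. Each well got 19.5 μl buffer, then 0.5 μl of DMSO, reference ligand, or compound. Adding 5 μl of [125I]-Urotensin II, diluted to 5× final concentration in binding buffer, started binding. Plates were sealed with TopSeal-A and incubated 1 hour at room temperature in the dark. Wells were counted for 30 seconds each on a TopCount after a 60-second delay, and percentage inhibition was calculated.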

[8] = target: T8, Human Melanocortin (MC3) (Homo sapiens, UniProt P41968); test: Radioligand binding, human melanocortin MC3 membranes, FlashPlate, [125I]-NDP-αMSH; conditions: compound at 10 μM; [125I]-NDP-αMSH
T8 construct: purchased Perkin Elmer Biosignal
Outline: as §1

[9] = target: T9, Human κ-Opioid (KOP) (Homo sapiens, UniProt P41145); test: Radioligand binding, human κ-opioid (KOP) membranes, filtration, [3H]-Diprenorphine; conditions: compound at 10 μM; [3H]-Diprenorphine
T9 construct: purchased Perkin Elmer Biosignal
Outline: (§2)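 Filtration binding on cloned human receptor membranes (1 Unit/well), [125I]-Substance P for NK1 and [3H]-Diprenorphine for KOP, 1 h at room temperature. Filters PEI-presoaked, washed with cold 50 mM Tris-HCl pH 7.4, counted by scintillation; percent inhibition calculated, reference ligand defining non-specific binding.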

[10] = target: T10, Human melanocortin (MC5) (Homo sapiens, UniProt P33032); test: Radioligand binding, human melanocortin MC5 membranes, FlashPlate, [125I]-NDP-αMSH; conditions: compound at 10 μM; [125I]-NDP-αMSH
T10 construct: purchased Perkin Elmer Biosignal
Outline: as §1

[11] = target: T11, Human neurokinin (NK1) (Homo sapiens, UniProt P25103); test: Radioligand binding, human neurokinin NK1 membranes, filtration, [125I]-Substance P; conditions: compound at 10 μM; [125I]-Substance P
T11 construct: purchased Perkin Elmer Biosignal
Outline: as §2

T10 sequence (P33032 whole entry): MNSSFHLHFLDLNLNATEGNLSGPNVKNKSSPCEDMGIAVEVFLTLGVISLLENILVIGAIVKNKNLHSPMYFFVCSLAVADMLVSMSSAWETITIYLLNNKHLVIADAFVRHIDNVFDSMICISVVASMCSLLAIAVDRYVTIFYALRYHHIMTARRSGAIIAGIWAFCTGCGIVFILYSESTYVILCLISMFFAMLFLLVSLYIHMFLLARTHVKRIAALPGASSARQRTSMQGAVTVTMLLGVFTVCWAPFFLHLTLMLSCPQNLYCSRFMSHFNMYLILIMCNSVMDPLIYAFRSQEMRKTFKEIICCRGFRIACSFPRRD
T6 sequence (P41143 whole entry): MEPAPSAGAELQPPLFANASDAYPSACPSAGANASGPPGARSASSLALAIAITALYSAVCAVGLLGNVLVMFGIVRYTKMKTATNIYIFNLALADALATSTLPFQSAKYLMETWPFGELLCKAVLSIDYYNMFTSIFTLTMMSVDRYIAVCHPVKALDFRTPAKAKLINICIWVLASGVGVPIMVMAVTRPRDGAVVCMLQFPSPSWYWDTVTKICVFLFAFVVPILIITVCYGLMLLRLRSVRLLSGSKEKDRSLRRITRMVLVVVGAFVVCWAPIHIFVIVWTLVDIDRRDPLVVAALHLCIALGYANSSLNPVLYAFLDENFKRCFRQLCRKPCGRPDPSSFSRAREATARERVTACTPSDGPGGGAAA
T8 sequence (P41968 whole entry): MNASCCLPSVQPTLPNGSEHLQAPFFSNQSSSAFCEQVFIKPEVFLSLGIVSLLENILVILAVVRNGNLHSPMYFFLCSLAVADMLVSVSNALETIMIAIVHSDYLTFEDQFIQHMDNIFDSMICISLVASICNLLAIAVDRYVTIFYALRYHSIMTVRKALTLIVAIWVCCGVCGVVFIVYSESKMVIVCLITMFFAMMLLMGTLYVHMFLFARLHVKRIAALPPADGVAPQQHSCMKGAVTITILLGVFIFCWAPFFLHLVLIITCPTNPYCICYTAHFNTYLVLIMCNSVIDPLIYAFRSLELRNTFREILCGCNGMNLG
T11 sequence (P25103 whole entry): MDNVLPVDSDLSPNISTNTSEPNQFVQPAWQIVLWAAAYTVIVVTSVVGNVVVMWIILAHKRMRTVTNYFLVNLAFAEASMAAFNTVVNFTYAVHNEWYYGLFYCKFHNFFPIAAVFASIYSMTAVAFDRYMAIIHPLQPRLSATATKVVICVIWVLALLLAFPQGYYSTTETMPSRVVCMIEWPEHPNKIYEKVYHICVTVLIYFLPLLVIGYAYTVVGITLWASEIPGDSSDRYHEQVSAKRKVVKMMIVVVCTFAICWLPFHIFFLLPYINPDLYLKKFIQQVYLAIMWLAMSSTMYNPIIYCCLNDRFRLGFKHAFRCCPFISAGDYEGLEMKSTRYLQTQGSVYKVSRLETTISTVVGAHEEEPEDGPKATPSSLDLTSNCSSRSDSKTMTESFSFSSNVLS
T4 sequence (P41146 whole entry): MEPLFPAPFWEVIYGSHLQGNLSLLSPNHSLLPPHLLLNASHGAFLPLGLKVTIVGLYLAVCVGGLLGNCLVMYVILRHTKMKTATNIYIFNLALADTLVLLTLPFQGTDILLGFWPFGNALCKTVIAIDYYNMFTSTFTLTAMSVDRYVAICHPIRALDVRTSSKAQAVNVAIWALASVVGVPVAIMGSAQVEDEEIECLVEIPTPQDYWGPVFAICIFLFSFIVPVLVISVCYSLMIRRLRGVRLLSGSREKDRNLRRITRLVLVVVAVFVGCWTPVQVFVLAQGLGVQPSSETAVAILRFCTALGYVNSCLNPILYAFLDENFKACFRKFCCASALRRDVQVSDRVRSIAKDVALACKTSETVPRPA
T3 sequence (Q99705 whole entry): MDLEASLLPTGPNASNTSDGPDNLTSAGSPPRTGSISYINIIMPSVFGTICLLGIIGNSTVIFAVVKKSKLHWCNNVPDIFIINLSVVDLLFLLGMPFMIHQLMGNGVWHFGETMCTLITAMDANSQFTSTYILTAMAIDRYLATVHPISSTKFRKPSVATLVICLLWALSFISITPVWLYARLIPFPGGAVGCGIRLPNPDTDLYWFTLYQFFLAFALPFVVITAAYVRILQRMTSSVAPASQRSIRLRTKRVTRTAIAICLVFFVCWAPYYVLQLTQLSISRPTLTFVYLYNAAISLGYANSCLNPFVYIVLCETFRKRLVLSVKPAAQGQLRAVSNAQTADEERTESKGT
T1 sequence (P32245 whole entry): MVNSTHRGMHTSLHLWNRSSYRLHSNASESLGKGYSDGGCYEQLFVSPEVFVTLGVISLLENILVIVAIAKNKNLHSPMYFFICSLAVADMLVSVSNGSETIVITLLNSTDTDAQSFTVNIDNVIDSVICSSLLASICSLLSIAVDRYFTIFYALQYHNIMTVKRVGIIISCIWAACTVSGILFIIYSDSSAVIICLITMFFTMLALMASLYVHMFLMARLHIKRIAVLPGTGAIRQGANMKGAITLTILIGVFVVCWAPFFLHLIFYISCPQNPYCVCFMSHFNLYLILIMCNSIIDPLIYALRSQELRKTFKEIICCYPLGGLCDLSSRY
T9 sequence (P41145 whole entry): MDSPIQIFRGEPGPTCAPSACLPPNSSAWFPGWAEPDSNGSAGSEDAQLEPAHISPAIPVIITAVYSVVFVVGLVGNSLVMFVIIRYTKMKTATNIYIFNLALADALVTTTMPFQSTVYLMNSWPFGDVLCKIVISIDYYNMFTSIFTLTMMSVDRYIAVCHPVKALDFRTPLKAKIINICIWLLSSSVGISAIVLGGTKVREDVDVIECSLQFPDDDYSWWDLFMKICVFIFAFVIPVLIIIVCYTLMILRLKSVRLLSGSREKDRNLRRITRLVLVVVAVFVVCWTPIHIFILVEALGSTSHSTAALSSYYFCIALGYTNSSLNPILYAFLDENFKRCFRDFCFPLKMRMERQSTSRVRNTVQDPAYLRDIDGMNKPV
T2 sequence (P35372 whole entry): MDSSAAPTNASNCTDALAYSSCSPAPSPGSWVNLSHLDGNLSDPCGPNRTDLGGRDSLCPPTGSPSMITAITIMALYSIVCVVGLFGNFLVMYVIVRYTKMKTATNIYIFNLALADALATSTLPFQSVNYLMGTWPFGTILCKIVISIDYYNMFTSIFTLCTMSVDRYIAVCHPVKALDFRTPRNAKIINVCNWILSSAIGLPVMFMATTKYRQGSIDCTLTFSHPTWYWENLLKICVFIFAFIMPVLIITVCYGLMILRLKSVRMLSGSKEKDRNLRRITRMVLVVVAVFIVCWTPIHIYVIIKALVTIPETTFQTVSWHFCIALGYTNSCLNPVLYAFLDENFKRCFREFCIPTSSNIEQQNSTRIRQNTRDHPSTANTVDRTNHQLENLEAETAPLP

SMILES | A4: inhibition of radioligand binding, human melanocortin (MC4) [1] | A7: inhibition of radioligand binding, human μ-opioid (MOP) [2] | A6: inhibition of radioligand binding, human melanin-concentrating hormone (MCH1) [3] | A10: inhibition of radioligand binding, human opioid (ORL1) [4] | A9: inhibition of radioligand binding, human neuropeptide Y (NPY-Y1) [5] | A1: inhibition of radioligand binding, human δ-opioid (DOP) [6] | A11: inhibition of radioligand binding, mouse urotensin (mUR2) [7] | A3: inhibition of radioligand binding, human melanocortin (MC3) [8] | A2: inhibition of radioligand binding, human κ-opioid (KOP) [9] | A5: inhibition of radioligand binding, human melanocortin (MC5) [10] | A8: inhibition of radioligand binding, human neurokinin (NK1) [11]
CSC1O[C@H](COCc2ccc(Cl)cc2)[C@@H](O)[C@@H](OCc2ccc(-c3ccccc3)cc2)[C@H]1NC(=O)CCNC(=N)N (stereo partly shown) [compound 291] | + (“+” indicates greater than 50% inhibition at 10 μM) | − (“−” indicates less than 50% inhibition at 10 μM) | − (“−” indicates less than 50% inhibition at 10 μM) | − (“−” indicates less than 50% inhibition at 10 μM) | − (“−” indicates less than 50% inhibition at 10 μM) | − (“−” indicates less than 50% inhibition at 10 μM) | − (“−” indicates less than 50% inhibition at 10 μM) | − (“−” indicates less than 50% inhibition at 10 μM) | − (“−” indicates less than 50% inhibition at 10 μM) | − (“−” indicates less than 50% inhibition at 10 μM) | + (“+” indicates greater than 50% inhibition at 10 μM)
CSC1O[C@H](COCc2ccc(Cl)cc2)[C@@H](O)[C@@H](OCc2ccc(-c3ccccc3)cc2)[C@H]1NC(=O)CCCNC(=N)N (stereo partly shown) [compound 292] | − (“−” indicates less than 50% inhibition at 10 μM) | − (“−” indicates less than 50% inhibition at 10 μM) | − (“−” indicates less than 50% inhibition at 10 μM) | − (“−” indicates less than 50% inhibition at 10 μM) | − (“−” indicates less than 50% inhibition at 10 μM) | − (“−” indicates less than 50% inhibition at 10 μM) | − (“−” indicates less than 50% inhibition at 10 μM) | − (“−” indicates less than 50% inhibition at 10 μM) | − (“−” indicates less than 50% inhibition at 10 μM) | + (“+” indicates greater than 50% inhibition at 10 μM) | + (“+” indicates greater than 50% inhibition at 10 μM)
CSC1O[C@H](COCc2ccc(-c3ccccc3)cc2)[C@@H](O)[C@@H](OCc2ccc(-c3ccccc3)cc2)[C@H]1NC(=O)CCNC(=N)N (stereo partly shown) [compound 293] | − (“−” indicates less than 50% inhibition at 10 μM) | − (“−” indicates less than 50% inhibition at 10 μM) | − (“−” indicates less than 50% inhibition at 10 μM) | − (“−” indicates less than 50% inhibition at 10 μM) | − (“−” indicates less than 50% inhibition at 10 μM) | − (“−” indicates less than 50% inhibition at 10 μM) | − (“−” indicates less than 50% inhibition at 10 μM) | − (“−” indicates less than 50% inhibition at 10 μM) | − (“−” indicates less than 50% inhibition at 10 μM) | − (“−” indicates less than 50% inhibition at 10 μM) | + (“+” indicates greater than 50% inhibition at 10 μM)
CSC1O[C@H](COCc2ccc(-c3ccccc3)cc2)[C@@H](O)[C@@H](OCc2ccc(-c3ccccc3)cc2)[C@H]1NC(=O)CCCN (stereo partly shown) [compound 294] | − (“−” indicates less than 50% inhibition at 10 μM) | − (“−” indicates less than 50% inhibition at 10 μM) | − (“−” indicates less than 50% inhibition at 10 μM) | − (“−” indicates less than 50% inhibition at 10 μM) | − (“−” indicates less than 50% inhibition at 10 μM) | − (“−” indicates less than 50% inhibition at 10 μM) | − (“−” indicates less than 50% inhibition at 10 μM) | − (“−” indicates less than 50% inhibition at 10 μM) | − (“−” indicates less than 50% inhibition at 10 μM) | + (“+” indicates greater than 50% inhibition at 10 μM) | + (“+” indicates greater than 50% inhibition at 10 μM)
CSC1O[C@H](COCc2ccc3ccccc3c2)[C@@H](O)[C@@H](OCc2ccc(-c3ccccc3)cc2)[C@H]1NC(=O)CN (stereo partly shown) [compound 295] | − (“−” indicates less than 50% inhibition at 10 μM) | − (“−” indicates less than 50% inhibition at 10 μM) | − (“−” indicates less than 50% inhibition at 10 μM) | − (“−” indicates less than 50% inhibition at 10 μM) | − (“−” indicates less than 50% inhibition at 10 μM) | − (“−” indicates less than 50% inhibition at 10 μM) | − (“−” indicates less than 50% inhibition at 10 μM) | − (“−” indicates less than 50% inhibition at 10 μM) | − (“−” indicates less than 50% inhibition at 10 μM) | − (“−” indicates less than 50% inhibition at 10 μM) | + (“+” indicates greater than 50% inhibition at 10 μM)
